Source: article PMC6368403, “Identification of a bilirubin receptor that may mediate a component of cholestatic itch” (eLife, 2019)
Values joined by “and” are separate entries in the source; they are usually repeats but may differ in a detail not shown here. Equal entries are not always repeated. Each block holds one molecule with its values, some of them ahead of it.

Key:
[1] = tested on: mice; assay: Cheek injection model: scratching bouts and wiping; type: in vivo, mouse; conditions: injected into cheek: 1.3 mM deoxycholic acid, 4 mM LPA
Protocol: All applicable behavioral tests were performed and analysed with the experimenter blind to genotype. […] There were no significant differences in itch between male and female mice. […] On the day before the experiment, animals were placed in the test chamber for 30 min before being subjected to a series of three mock injections with 5 min break periods in between. On the day of the experiment, animals were first allowed to acclimatize to the test chamber for 10 min before injection. […] A bout of scratching was defined as a continuous scratching movement with either hindpaw directed at the area of the injection site. In the cheek injection model, a wipe was defined as a single forepaw stroking the site of the injection. Use of both forepaws on the face or cheek was considered as grooming behavior. […] For H1R block, 30 mg/kg of cetirizine HCl (pH 7.4) was given intraperitoneally thirty minutes prior to injection of bilirubin. Licking behavior was quantified in seconds and identified as the licking of the toes or footpad of the hind paw site of injection that was neither preceded nor followed by licking of any other portion of the body.

[2] = tested on: DRG neurons; assay: Ca2+ imaging of cultured DRG neurons; type: cell-based, mouse
Protocol: All cultured cells were maintained in DMEM supplemented with 10% FBS and 1% Penicillin/Streptomycin at 37°C, 5% CO2. […] Cells were imaged in calcium imaging buffer (CIB; 10 mM HEPES, 1.2 mM NaHCO3, 130 mM NaCl, 3 mM KCl, 2.5 mM CaCl2, 0.6 mM MgCl2, 20 mM glucose, and 20 mM sucrose at pH 7.4 and 290–300 mOsm). To monitor changes in intracellular [Ca^2+] ([Ca^2+]i), cells were loaded with either Fura 2-AM (HEK293 cells) or Fluo 4-AM (DRG neurons and mast cells) for 30 min in the dark at 37°C in CIB just prior to imaging. With Fura 2-AM, emission at 510 nm was monitored from excitation at both 340 nm and 380 nm. With Fluo 4-AM, emission at 520 nm was monitored from excitation at 488 nm. Cells were identified as responding if the intracellular [Ca^2+] rose by either 50% compared to baseline or 50% compared to the [Ca^2+]i change assayed during addition of 50 mM KCl (neurons only). Damaged, detached, high-baseline, and motion-activated cells were excluded from analysis.
DRGs were incubated with Fluo-4 AM 24 hr after dissociation (native genotype) or 48 hr after dissociation (virally transduced). Unless otherwise noted, cells were imaged for 20 seconds to establish a baseline before compounds were added. After 30 s, a 2 min wash was applied before addition of another substances. At the end of every imaging trial, 50 mM KCl was added as a positive control. […] For ruthenium red inhibitor experiments, neurons were incubated with 10 µM ruthenium red for 5 min prior to imaging. Percentage activated was determined as earlier described.
DRG neurons from all spinal levels were collected in cold DH10 media (90% Dulbecco’s modified Eagle’s medium (DMEM)/F-12, 10% FBS, penicillin (100 U/mL), and streptomycin (100 μg/mL)). DRGs were digested with a dispase (5 mg/ml)/collagenase type I (1 mg/ml) enzyme mixture at 37°C for 45 min. After trituration, cells were spun at 300 g and re-suspended in DH10 before being plated on glass coverslips coated with poly-D-lysine (0.5 mg/ml) and laminin (10 μg/ml, Invitrogen). DRGs were cultured with DH10 supplemented with 50 ng/mL NGF at 37°C.

[3] = target: T1, MRGPRC11 (Mus musculus, UniProt Q8CIP3); assay: Microscale thermophoresis binding to MRGPRC11; conditions: mean of n=3, Fig 2-O
T1 construct: expressed in transfected cells
T1 sequence (Q8CIP3 1-322): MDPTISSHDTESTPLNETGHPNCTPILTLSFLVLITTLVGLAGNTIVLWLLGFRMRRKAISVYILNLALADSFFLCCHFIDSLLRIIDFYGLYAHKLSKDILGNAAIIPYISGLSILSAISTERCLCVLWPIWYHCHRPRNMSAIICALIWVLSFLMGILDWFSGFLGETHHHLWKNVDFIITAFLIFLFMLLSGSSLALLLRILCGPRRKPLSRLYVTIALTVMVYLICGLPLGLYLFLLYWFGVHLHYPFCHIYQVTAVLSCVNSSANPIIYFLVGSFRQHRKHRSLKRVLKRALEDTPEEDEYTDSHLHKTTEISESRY
Protocol: Binding isotherms for MRGPRA1, MRGPRX4, and MRGRPC11 towards various ligands were determined by microscale thermophoresis with the NanoTemper monolith NT.115 instrument ([Duhr and Braun, 2006]). Ligands were pre-incubated with 10 µM of the GFP-tagged receptor of interest for 5 min at room temperature in binding buffer (20 mM Tris and 150 mM NaCl at pH 8.8). Receptors were crudely purified as a membrane fraction from cells stably expressing the receptor ([Vasavda et al., 2017]). Haem metabolites were freshly dissolved in 0.1 M NaOH in dim light and then diluted into assay buffer. Lyophilized BAM8-22 was dissolved in binding buffer. The pH of each ligand was evaluated prior to incubation with a receptor. Samples were loaded into NT.115 Hydrophobic-Treated Capillaries from NanoTemper. Microscale thermophoretic experiments were executed using 20% LED power and 15% MST power. KDs were calculated using the law of mass action with data from three independent experiments. Binding between bilirubin and receptors was evaluated purely thermophoretically, whereas binding between BAM8-22 and MRGPRC11 was evaluated by T-Jump. Samples with dramatic deviations in initial fluorescence were excluded.

[4] = target: T1, MRGPRC11; assay: Ca2+ imaging and concentration-Ca2+ response in HEK293 cells expressing MRGPRC11; type: cell-based; conditions: three replicates, Fig 2-N
Protocol: All cultured cells were maintained in DMEM supplemented with 10% FBS and 1% Penicillin/Streptomycin at 37°C, 5% CO2. All data included were generated from cells tested for mycoplasma and found to be negative. Cells were imaged in calcium imaging buffer (CIB; 10 mM HEPES, 1.2 mM NaHCO3, 130 mM NaCl, 3 mM KCl, 2.5 mM CaCl2, 0.6 mM MgCl2, 20 mM glucose, and 20 mM sucrose at pH 7.4 and 290–300 mOsm). To monitor changes in intracellular [Ca^2+] ([Ca^2+]i), cells were loaded with either Fura 2-AM (HEK293 cells) or Fluo 4-AM (DRG neurons and mast cells) for 30 min in the dark at 37°C in CIB just prior to imaging. With Fura 2-AM, emission at 510 nm was monitored from excitation at both 340 nm and 380 nm. With Fluo 4-AM, emission at 520 nm was monitored from excitation at 488 nm. Cells were identified as responding if the intracellular [Ca^2+] rose by either 50% compared to baseline or 50% compared to the [Ca^2+]i change assayed during addition of 50 mM KCl (neurons only). Damaged, detached, high-baseline, and motion-activated cells were excluded from analysis.
In initial screens, HEK293 cells stably expressing the murine G-protein alpha-subunit Gα15, a unique Gα protein that non-selectively couples a large variety of GPCRs to phospholipase C ^30, were plated on poly-D-lysine-coated coverslips and transiently transfected with constructs encoding the MRGRPR of interest. 12–24 hr later, cells were loaded with the Fura 2-AM. Unless otherwise specified, compounds were perfused into the imaging chamber for approximately thirty seconds after a baseline period was established. Response was then monitored at 5 s intervals for an additional 60 s.
HEK293 cells stably expressing either MRGPRA1, MRGPRX4, and MRGRPC11 were seeded in poly-D-lysine-coated 96-well plates at 10,000 cells/well. Cells were loaded with Fura 2–AM, washed twice, and maintained in CIB. Haem metabolites were freshly dissolved in DMSO in dim light and then diluted into a buffer comprised of 20 mM Tris and 150 mM NaCl at pH 8.8. Potential changes in pH were evaluated prior to each experiment. EC50 values were determined from dose-responses performed in triplicate, repeated 2–4 times. To determine potential antagonism by QWF against bilirubin, cells were treated with varying doses of QWF for 1 min in CIB prior to application of agonist.
HEK293 stable cell lines expressing GFP-tagged MRGPRA3, MRGPRC11, MRGPRD, MRGPRX1, and MRGPRX2 were generated in previously described reports ([Liu et al., 2009]; [Liu et al., 2012]; [McNeil et al., 2015]). Briefly, plasmids containing the receptor of interest were transfected into HEK cells using Lipofectamine 3000. After 3 days, cells were then selected using 0.5 mg/mL G418. After 3 weeks, monoclonal colonies were established and each the highest expressing clones were identified. For this study, Mrgpra1 and MRGPRX4 were inserted into pEGFP-N1 and transfected into HEK293 cells. MRGPR-positive cells were selected using 0.5 mg/mL G418 for three weeks, after which GFP-positive cells were sorted by FACS and monoclonally expanded. Two lines expressing similar levels of MRGPRA1 and MRGPRX4, as measured by GFP fluorescence, were selected for study.

Molecule: C[C@H](CCC(=O)O)[C@H]1CC[C@H]2[C@@H]3CC[C@@H]4C[C@H](O)CC[C@]4(C)[C@H]3C[C@H](O)[C@]12C [deoxycholic acid, reference compound]
Scratching in WT versus Mrgpr-cluster KO animals [1]: equivalent degrees of scratching in WT and Mrgpr-cluster KO animals

Molecule: N.N.N.N.N.N.N.N.N.N.N.N.N.N.[Cl-].[Cl-].[Cl-].[Cl-].[Cl-].[Cl-].[O-2].[O-2].[Ru+3].[Ru+3].[Ru+4] [ruthenium red, reference compound]
Effect on activation of sensory neurons by bilirubin ([2]; 10 µM ruthenium red, 50 µM bilirubin): prevented bilirubin from activating sensory neurons | Percent activated neurons by 50 µM bilirubin ([2]; WT neurons incubated with 10 µM ruthenium red (Fig 4G)): 0.73%

microscale thermophoresis response (binding isotherm), mean ([3]; [Ligand] 4.88e-8 M): 0.2221 | microscale thermophoresis response (binding isotherm), mean ([3]; [Ligand] 9.77e-8 M): 0.7996 | microscale thermophoresis response (binding isotherm), mean ([3]; [Ligand] 1.953e-7 M): 0.1618 | microscale thermophoresis response (binding isotherm), mean ([3]; [Ligand] 3.906e-7 M): -0.3098 | microscale thermophoresis response (binding isotherm), mean ([3]; [Ligand] 7.813e-7 M): -0.7916 | microscale thermophoresis response (binding isotherm), mean ([3]; [Ligand] 1.5625e-6 M): -0.6624 | microscale thermophoresis response (binding isotherm), mean ([3]; [Ligand] 3.125e-6 M): -0.9001 | microscale thermophoresis response (binding isotherm), mean ([3]; [Ligand] 6.25e-6 M): -0.5948 | microscale thermophoresis response (binding isotherm), mean ([3]; [Ligand] 1.25e-5 M): -2.488 | microscale thermophoresis response (binding isotherm), mean ([3]; [Ligand] 2.5e-5 M): -2.079 | microscale thermophoresis response (binding isotherm), mean ([3]; [Ligand] 5e-5 M): -2.779 | microscale thermophoresis response (binding isotherm), mean ([3]; [Ligand] 0.0001 M): -3.797 | Ca2+ response (concentration-Ca2+ response curve), replicate values ([4]; [Ligand] 1.95313e-7 M): 1.675 (2×) and 1.799 | Ca2+ response (concentration-Ca2+ response curve), replicate values ([4]; [Ligand] 3.90625e-7 M): 1.633 and 1.596 and 1.826 | Ca2+ response (concentration-Ca2+ response curve), replicate values ([4]; [Ligand] 7.8125e-7 M): 1.6619 and 1.688 and 1.837 | Ca2+ response (concentration-Ca2+ response curve), replicate values ([4]; [Ligand] 1.5625e-6 M): 1.91 and 1.851 and 1.839 | Ca2+ response (concentration-Ca2+ response curve), replicate values ([4]; [Ligand] 3.125e-6 M): 2.508 and 1.957 and 1.844 | Ca2+ response (concentration-Ca2+ response curve), replicate values ([4]; [Ligand] 6.25e-6 M): 2.578 and 3.436 and 2.313 | Ca2+ response (concentration-Ca2+ response curve), replicate values ([4]; [Ligand] 1.25e-5 M): 4.631 and 2.839 and 3.888 | Ca2+ response (concentration-Ca2+ response curve), replicate values ([4]; [Ligand] 2.5e-5 M): 3.332 and 3.664 and 3.933
Molecule: BAM8-22 [reference compound]

Molecule: lysophosphatidic acid [LPA, reference compound]
Scratching in WT versus Mrgpr-cluster KO animals [1]: equivalent degrees of scratching in WT and Mrgpr-cluster KO animals
